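These data come from cells grown in 96-well plates and exposed to compound for 48 hours at five concentrations. The concentration for 50% growth inhibition is given as GI50. TGI marks complete inhibition of growth.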
How the values were obtained:
Assay in all cases: DTP human tumour cell line panel, 48 h
CAKI-1 renal = test system: CAKI-1 renal
UACC-257 melanoma = test system: UACC-257 melanoma
NCI-H226 lung = test system: NCI-H226 lung
ACHN renal = test system: ACHN renal
COLO 205 colon = test system: COLO 205 colon
UO-31 renal = test system: UO-31 renal
MOLT-4 leukemia = test system: MOLT-4 leukemia
KM12 colon = test system: KM12 colon
CCRF-CEM leukemia = test system: CCRF-CEM leukemia
A549 NSCLC = test system: A549 NSCLC
SNB-75 CNS = test system: SNB-75 CNS
OVCAR-8 ovarian = test system: OVCAR-8 ovarian
SK-MEL-28 melanoma = test system: SK-MEL-28 melanoma
DU-145 prostate = test system: DU-145 prostate
SK-MEL-5 melanoma = test system: SK-MEL-5 melanoma
HT29 colon = test system: HT29 colon
LOX IMVI melanoma = test system: LOX IMVI melanoma
SW-620 colon = test system: SW-620 colon
EKVX NSCLC = test system: EKVX NSCLC
NCI-H460 lung = test system: NCI-H460 lung
HOP-92 NSCLC = test system: HOP-92 NSCLC
OVCAR-5 ovarian = test system: OVCAR-5 ovarian
T-47D breast = test system: T-47D breast
NCI-H522 lung = test system: NCI-H522 lung
IGROV1 ovarian = test system: IGROV1 ovarian
BT-549 breast = test system: BT-549 breast
HOP-62 NSCLC = test system: HOP-62 NSCLC
SNB-19 CNS = test system: SNB-19 CNS
HCT-116 colon = test system: HCT-116 colon
TK-10 renal = test system: TK-10 renal
SN12C renal = test system: SN12C renal
SF-539 CNS = test system: SF-539 CNS
RXF 393 renal = test system: RXF 393 renal
HS 578T breast = test system: HS 578T breast
MCF7 breast = test system: MCF7 breast
M14 melanoma = test system: M14 melanoma
OVCAR-4 ovarian = test system: OVCAR-4 ovarian
HCT-15 colon = test system: HCT-15 colon
OVCAR-3 ovarian = test system: OVCAR-3 ovarian
SF-268 CNS = test system: SF-268 CNS
NCI-H23 lung = test system: NCI-H23 lung
RPMI-8226 leukemia = test system: RPMI-8226 leukemia
MDA-MB-435 = test system: MDA-MB-435
MALME-3M melanoma = test system: MALME-3M melanoma
MDA-MB-231 breast = test system: MDA-MB-231 breast
PC-3 prostate = test system: PC-3 prostate
HCC-2998 colon = test system: HCC-2998 colon
K-562 leukemia = test system: K-562 leukemia
SK-OV-3 ovarian = test system: SK-OV-3 ovarian
786-0 renal = test system: 786-0 renal
UACC-62 melanoma = test system: UACC-62 melanoma
SF-295 CNS = test system: SF-295 CNS
A498 renal = test system: A498 renal
U251 CNS = test system: U251 CNS
SK-MEL-2 melanoma = test system: SK-MEL-2 melanoma
NCI/ADR-RES ovarian = test system: NCI/ADR-RES ovarian
SR leukemia = test system: SR leukemia
HL-60(TB) leukemia = test system: HL-60(TB) leukemia

CC1SC(c2cccc(Cl)c2)N(NC(=O)C(O)c2ccccc2)C1=O (stereo not drawn)
GI50 (CAKI-1 renal): > 100 µM
TGI (CAKI-1 renal): > 100 µM
GI50 (UACC-257 melanoma): > 100 µM
TGI (UACC-257 melanoma): > 100 µM
GI50 (NCI-H226 lung): > 100 µM
TGI (NCI-H226 lung): > 100 µM
GI50 (ACHN renal): > 100 µM
TGI (ACHN renal): > 100 µM
GI50 (COLO 205 colon): > 100 µM
TGI (COLO 205 colon): > 100 µM
GI50 (UO-31 renal): > 100 µM
TGI (UO-31 renal): > 100 µM
GI50 (MOLT-4 leukemia): > 100 µM
TGI (MOLT-4 leukemia): > 100 µM
GI50 (KM12 colon): > 100 µM
TGI (KM12 colon): > 100 µM
GI50 (CCRF-CEM leukemia): > 100 µM
TGI (CCRF-CEM leukemia): > 100 µM
GI50 (A549 NSCLC): 86.7 µM
TGI (A549 NSCLC): > 100 µM
GI50 (SNB-75 CNS): 79.1 µM
TGI (SNB-75 CNS): > 100 µM
GI50 (OVCAR-8 ovarian): > 100 µM
TGI (OVCAR-8 ovarian): > 100 µM
GI50 (SK-MEL-28 melanoma): > 100 µM
TGI (SK-MEL-28 melanoma): > 100 µM
GI50 (DU-145 prostate): > 100 µM
TGI (DU-145 prostate): > 100 µM
GI50 (SK-MEL-5 melanoma): > 100 µM
TGI (SK-MEL-5 melanoma): > 100 µM
GI50 (HT29 colon): > 100 µM
TGI (HT29 colon): > 100 µM
GI50 (LOX IMVI melanoma): > 100 µM
TGI (LOX IMVI melanoma): > 100 µM
GI50 (SW-620 colon): > 100 µM
TGI (SW-620 colon): > 100 µM
GI50 (EKVX NSCLC): > 100 µM
TGI (EKVX NSCLC): > 100 µM
GI50 (NCI-H460 lung): > 100 µM
TGI (NCI-H460 lung): > 100 µM
GI50 (HOP-92 NSCLC): > 100 µM
TGI (HOP-92 NSCLC): > 100 µM
GI50 (OVCAR-5 ovarian): > 100 µM
TGI (OVCAR-5 ovarian): > 100 µM
GI50 (T-47D breast): > 100 µM
TGI (T-47D breast): > 100 µM
GI50 (NCI-H522 lung): > 100 µM
TGI (NCI-H522 lung): > 100 µM
GI50 (IGROV1 ovarian): 68.7 µM
TGI (IGROV1 ovarian): > 100 µM
GI50 (BT-549 breast): > 100 µM
TGI (BT-549 breast): > 100 µM
GI50 (HOP-62 NSCLC): > 100 µM
TGI (HOP-62 NSCLC): > 100 µM
GI50 (SNB-19 CNS): > 100 µM
TGI (SNB-19 CNS): > 100 µM
GI50 (HCT-116 colon): > 100 µM
TGI (HCT-116 colon): > 100 µM
GI50 (TK-10 renal): > 100 µM
TGI (TK-10 renal): > 100 µM
GI50 (SN12C renal): > 100 µM
TGI (SN12C renal): > 100 µM
GI50 (SF-539 CNS): > 100 µM
TGI (SF-539 CNS): > 100 µM
GI50 (RXF 393 renal): 80.6 µM
TGI (RXF 393 renal): > 100 µM
GI50 (HS 578T breast): > 100 µM
TGI (HS 578T breast): > 100 µM
GI50 (MCF7 breast): > 100 µM
TGI (MCF7 breast): > 100 µM
GI50 (M14 melanoma): > 100 µM
TGI (M14 melanoma): > 100 µM
GI50 (OVCAR-4 ovarian): 75.4 µM
TGI (OVCAR-4 ovarian): > 100 µM
GI50 (HCT-15 colon): > 100 µM
TGI (HCT-15 colon): > 100 µM
GI50 (OVCAR-3 ovarian): > 100 µM
TGI (OVCAR-3 ovarian): > 100 µM
GI50 (SF-268 CNS): > 100 µM
TGI (SF-268 CNS): > 100 µM
GI50 (NCI-H23 lung): > 100 µM
TGI (NCI-H23 lung): > 100 µM
GI50 (RPMI-8226 leukemia): 43.2 µM
TGI (RPMI-8226 leukemia): > 100 µM
GI50 (MDA-MB-435): > 100 µM
TGI (MDA-MB-435): > 100 µM
GI50 (MALME-3M melanoma): > 100 µM
TGI (MALME-3M melanoma): > 100 µM
GI50 (MDA-MB-231 breast): > 100 µM
TGI (MDA-MB-231 breast): > 100 µM
GI50 (PC-3 prostate): > 100 µM
TGI (PC-3 prostate): > 100 µM
GI50 (HCC-2998 colon): > 100 µM
TGI (HCC-2998 colon): > 100 µM
GI50 (K-562 leukemia): 69.4 µM
TGI (K-562 leukemia): > 100 µM
GI50 (SK-OV-3 ovarian): > 100 µM
TGI (SK-OV-3 ovarian): > 100 µM
GI50 (786-0 renal): > 100 µM
TGI (786-0 renal): > 100 µM
GI50 (UACC-62 melanoma): 39 µM
TGI (UACC-62 melanoma): > 100 µM
GI50 (SF-295 CNS): > 100 µM
TGI (SF-295 CNS): > 100 µM
GI50 (A498 renal): > 100 µM
TGI (A498 renal): > 100 µM
GI50 (U251 CNS): > 100 µM
TGI (U251 CNS): > 100 µM
GI50 (SK-MEL-2 melanoma): > 100 µM
TGI (SK-MEL-2 melanoma): > 100 µM

Cc1ccc(C(=O)N/N=C(\N=Nc2ccccc2)c2ccc(N(CCC#N)CCC#N)cc2C)cc1
TGI (CAKI-1 renal): > 100 µM
TGI (UACC-257 melanoma): > 100 µM
TGI (NCI-H226 lung): > 100 µM
TGI (ACHN renal): > 100 µM
TGI (COLO 205 colon): > 100 µM
TGI (UO-31 renal): > 100 µM
TGI (MOLT-4 leukemia): > 100 µM
TGI (KM12 colon): > 100 µM
TGI (CCRF-CEM leukemia): > 100 µM
TGI (A549 NSCLC): > 100 µM
TGI (SNB-75 CNS): > 100 µM
TGI (OVCAR-8 ovarian): > 100 µM
TGI (SK-MEL-28 melanoma): > 100 µM
TGI (DU-145 prostate): > 100 µM
TGI (SK-MEL-5 melanoma): > 100 µM
TGI (HT29 colon): > 100 µM
TGI (LOX IMVI melanoma): > 100 µM
TGI (NCI/ADR-RES ovarian): > 100 µM
TGI (SW-620 colon): > 100 µM
TGI (EKVX NSCLC): > 100 µM
TGI (NCI-H460 lung): > 100 µM
TGI (HOP-92 NSCLC): > 100 µM
TGI (OVCAR-5 ovarian): > 100 µM
TGI (T-47D breast): > 100 µM
TGI (NCI-H522 lung): 61.3 µM
TGI (IGROV1 ovarian): > 100 µM
TGI (HOP-62 NSCLC): 52.9 µM
TGI (SNB-19 CNS): > 100 µM
TGI (SR leukemia): > 100 µM
TGI (TK-10 renal): > 100 µM
TGI (SF-539 CNS): 39.9 µM
TGI (RXF 393 renal): > 100 µM
TGI (HS 578T breast): > 100 µM
TGI (MCF7 breast): > 100 µM
TGI (M14 melanoma): > 100 µM
TGI (OVCAR-4 ovarian): > 100 µM
TGI (HCT-15 colon): > 100 µM
TGI (OVCAR-3 ovarian): > 100 µM
TGI (SF-268 CNS): 61.7 µM
TGI (NCI-H23 lung): > 100 µM
TGI (RPMI-8226 leukemia): > 100 µM
TGI (MDA-MB-435): > 100 µM
TGI (MDA-MB-231 breast): > 100 µM
TGI (PC-3 prostate): > 100 µM
TGI (HCC-2998 colon): > 100 µM
TGI (K-562 leukemia): > 100 µM
TGI (HL-60(TB) leukemia): > 100 µM
TGI (SK-OV-3 ovarian): > 100 µM
TGI (UACC-62 melanoma): > 100 µM
TGI (SF-295 CNS): > 100 µM
TGI (A498 renal): > 100 µM
TGI (U251 CNS): > 100 µM
TGI (SK-MEL-2 melanoma): > 100 µM

Source: PubChem BioAssay (NCI)
